Our source for the EC50 values is PubChem BioAssay AID1959 (Broad Institute, 2009).

Calls of active or inactive are those of the source.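 Rule for the calls: active = growth-inhibition EC50 no more than tenfold above the top tested dose; inconclusive = flat fit between 30% and 70% inhibition, or unreliable fit; inactive = EC50 more than tenfold above the top tested dose.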

This assay has as its system E. coli NEB5alpha growth, BacTiter-Glo luminescence, 4 h. In words: antibacterial activity against E. coli NEB5alpha – luminescence, counter-screen for MEX-5/POS-1 RNA-binding inhibitor project, dose response (AID 1959).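 Note: pUC19-transformed ampicillin-resistant cells grown in LB with ampicillin.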 For orientation: The purpose of a counterscreen is to sort out artefacts and off-target activity.
Consider `COc1ccc(-n2nc(C(=O)c3cccs3)cc(-c3nc4ccccc4[nH]3)c2=N)cc1`, for which the EC50 is > 11 µM (inactive).

`Cc1cccc(NC2=Nc3ccccc3N3C2=Nc2c(c(C)nn2-c2ccccc2)C3c2ccc(O)c(O)c2)c1` (stereo not given): the EC50 was > 11 µM (inactive).

For the compound `COc1ccc(-c2nc(CS(=O)CC(=O)NCc3ccccn3)c(C)o2)cc1` (stereo not given), the EC50 is > 11 µM (inactive).

For `COc1cc(C(c2c(C)[nH][nH]c2=O)c2c(C)[nH][nH]c2=O)cc([N+](=O)[O-])c1O`, the EC50 was > 11 µM (inactive).

For `Cc1nn(C)c(C)c1CN(C)C(=O)C1c2ccccc2Oc2ccccc21`, the EC50 was > 11 µM (inactive).

In the case of `COc1ccc(OC)c(S(=O)(=O)NC2CCN(Cc3ccccc3)CC2)c1`, the EC50 was > 11 µM (inactive).

Regarding `Cc1cc(N2C(=O)C(O)=C(C(=O)c3cc4ccccc4o3)C2c2ccc([N+](=O)[O-])cc2)no1` (stereo not given), the EC50 is > 11 µM (inactive).

Take `Cc1cc(C)nc(NNC2=CC(=O)CC(C)(C)C2)n1`: the EC50 is > 11 µM (inactive).

In the case of `CC1=C(C#N)C(=O)OC(C)(C)C1`, the EC50 is > 11 µM (inactive).

For the compound `Cc1ccc2cc(/C=C(\C#N)C(N)=O)c(N3CCCCC3)nc2c1`, the EC50 is > 11 µM (inactive).

Turning to `Cc1cc(O)c(Oc2cc(C)cc(O)c2O)c(O)c1`, the EC50 was > 11 µM (inactive).

`COc1ccc(NC(=O)C2Cc3ccccc3CN2C(=O)c2ccccc2)cn1` (stereo not given): the EC50 is > 11 µM (inactive).

Turning to `COc1ccc(C(=O)/C=C/c2ccc(N3CCCCC3)c([N+](=O)[O-])c2)c(OC)c1`, the EC50 is > 11 µM (inactive).

Turning to `CO[C@H]1O[C@H](CBr)[C@@H](OC(=O)c2ccccc2)[C@H](O)[C@H]1O`, the EC50 is > 11 µM (inactive).

As for `CCC(C)(C)NC(=O)C(c1cccn1C)N(C(=O)Cn1nnc2ccccc21)c1ccc(OC)cc1` (stereo not given), the EC50 was > 11 µM (inactive).

`CCC(C)n1c(O)c(/C=N/Nc2nc3c(c(=O)n(C)c(=O)n3C)n2C)c(=O)[nH]c1=S` (stereo not given): the EC50 is > 11 µM (inactive).

`COc1ccc2c(c1)S/C(=C\C(=O)c1ccncc1)N2C`: the EC50 is > 11 µM (inactive).

Take `CCc1ccc(/C=C2/SC(=S)N(CCC(=O)Nc3cccnc3)C2=O)cc1`: the EC50 was > 11 µM (inactive).

For `CN1C(=O)S/C(=C/c2cccn2-c2cccc(C(=O)O)c2)C1=O`, the EC50 was > 11 µM (inactive).

As to `CCN1C(=O)/C(=C\N(C)C)NC1=S`, the EC50 was > 11 µM (inactive).

For `CN1C(=O)C(=Cc2ccc(Sc3ccccc3)o2)C(=O)N(C)C1=S`, the EC50 was > 11 µM (inactive).

Consider `Oc1ccc(/C=C/c2cc(O)cc(O)c2)cc1`, for which the EC50 was > 11 µM (inactive).

Turning to `COC(=O)c1cccc(-n2c(CCC(=O)O)ccc2-c2cccs2)c1`, the EC50 was > 11 µM (inactive).

On to `CCOc1cccc(N2C(=O)/C(=C/c3ccco3)C(=O)NC2=S)c1`, for which the EC50 is > 11 µM (inactive).

As for `C=CCn1ccc(=NC=C(C#N)C#N)c2ccccc21`, the EC50 was > 11 µM (inactive).

As for `O=C(N1CCOCC1)N1CCC(n2nnc3cc(F)ccc32)CC1`, the EC50 is > 11 µM (inactive).

In the case of `O=C(NNC(=O)c1ccccc1O)c1ccc(S(=O)(=O)Nc2ccccc2F)cc1`, the EC50 is > 11 µM (inactive).

For `CN1C(=O)c2ccccc2NC(=O)[C@]12O[C@@H]2c1cccc(O)c1`, the EC50 was > 11 µM (inactive).

Regarding `CCCCC1=CC2=C(c3ccco3)C(=O)C(C)(OC(=O)c3ccc(OC)cc3)C(=O)C2=CN1C1CCCC1` (stereo not given), the EC50 was > 11 µM (inactive).

`COc1cccc(OCCCn2cc(/C=C3/C(=N)N4C=C(C)SC4=NC3=O)c3ccccc32)c1`: the EC50 is > 11 µM (inactive).

For the compound `CN1C(=O)C(=Cc2ccc(N3CCCCC3)o2)C(=O)N(C)C1=S`, the EC50 is > 11 µM (inactive).

For `CC(=O)c1ccc2c(c1)C1C=CCC1C(c1cc3c(cc1Br)OCO3)N2` (stereo not given), the EC50 was > 11 µM (inactive).

Take `COc1ccc(CCNC(=O)c2cc3c(=O)n4cccc(C)c4nc3n(CCCN3CCOCC3)c2=N)cc1`: the EC50 was > 11 µM (inactive).

Regarding `Cc1ccccc1NC(=O)/C(C#N)=C\c1cc(C)n(-c2ccc(C(=O)O)cc2)c1C`, the EC50 was > 11 µM (inactive).

`COc1ccc(C2OC34CCCCC3C(C#N)(C#N)C2(C#N)C(=N)O4)cc1` (stereo not given): the EC50 is > 11 µM (inactive).

Take `Cc1cccc(NC(=O)c2sc3nc(-c4ccccc4)cn3c2C)n1`: the EC50 was > 11 µM (inactive).

For the compound `O=C1CSC(=S)N1/N=C/c1ccc(O)c(O)c1O`, the EC50 was > 11 µM (inactive).

For `Cc1c(Cl)cccc1NC(=S)N1CCN(C(=O)C2CCCO2)CC1` (stereo not given), the EC50 was > 11 µM (inactive).

Consider `O=C(NNc1ccccn1)C(=O)NNS(=O)(=O)c1ccc(F)cc1`, for which the EC50 was > 11 µM (inactive).

Turning to `N#Cc1c(N)n(-c2cccc(C(=O)O)c2)c2nc3ccccc3nc12`, the EC50 is > 11 µM (inactive).

For `CCc1cc(=O)oc2cc(C)cc(OC(C)C(=O)O)c12` (stereo not given), the EC50 was > 11 µM (inactive).

Turning to `CCOc1ccccc1N1CCN(C(=O)CNC(=O)c2ccccc2F)CC1`, the EC50 is > 11 µM (inactive).

`CN1CCc2cc3c(c4c2C1Cc1ccccc1-4)OCO3` (stereo not given): the EC50 was > 11 µM (inactive).

`COC(=O)C1=C(C)N(c2ccccc2)/C(=C/c2ccco2)C1=O`: the EC50 is > 11 µM (inactive).

For `CSc1sccc1/C=C(/C#N)C(=O)c1ccco1`, the EC50 is > 11 µM (inactive).

On to `CN1C(=O)C(=Cc2cn(CC(=O)N3CCCCC3)c3ccccc23)C(=O)N(C)C1=O`, for which the EC50 is > 11 µM (inactive).

On to `Cc1ccc2c(c1C)NC(C(=O)O)C1CC=CC21` (stereo not given), for which the EC50 is > 11 µM (inactive).

For `O=C(NNC(=O)c1ccc2ccccc2c1O)c1ccccc1Cl`, the EC50 was > 11 µM (inactive).

As to `CS/C(=N\S(=O)(=O)c1cccs1)Nc1cccc(Cl)c1C`, the EC50 was > 11 µM (inactive).

For the compound `CCc1cc(C(=O)Nc2ccc(OC)nc2)sc1C`, the EC50 was > 11 µM (inactive).

As to `CCN1CCN(C(=O)c2ccc3c(=O)n(Cc4ccccc4OC)c(=S)[nH]c3c2)CC1`, the EC50 was > 11 µM (inactive).

Take `Cc1ncc(CO)c(/C=N/NC(=O)c2cc(O)c(O)c(O)c2)c1O`: the EC50 was > 11 µM (inactive).

With `ClCc1nc2ccccc2n1Cc1ccccc1`, the EC50 is > 11 µM (inactive).

`N#Cc1c(N)nc(SCc2ccccc2)c(C#N)c1-c1ccco1`: the EC50 was > 11 µM (inactive).

`Cc1nc(S/C(=C/c2ccc(-c3ccc(Cl)cc3)o2)C(=O)O)n[nH]1`: the EC50 is > 11 µM (inactive).

As for `COCCNC(=O)C1Nc2ccc(C(F)(F)F)cc2C2C=CCC12` (stereo not given), the EC50 was > 11 µM (inactive).

Turning to `Cc1cc(O)c(CN(C)C)c2c1C(=O)/C(=C/c1ccco1)O2`, the EC50 was > 11 µM (inactive).

For `COc1ccc(/C=N/NC(=O)c2ccc(N(C)S(=O)(=O)c3ccccc3)cc2)cc1`, the EC50 was > 11 µM (inactive).

Regarding `CCOC(=O)c1ccc(-n2c(CCC(=O)O)ccc2-c2ccc(F)cc2)cc1`, the EC50 is > 11 µM (inactive).

For `O=C1CS/C(=C\[N+](=O)[O-])N1c1ccccc1`, the EC50 was > 11 µM (inactive).

Consider `Oc1ccc2ccccc2c1/C=N/Nc1nnc(-c2ncc[nH]2)c2ccccc12`, for which the EC50 was > 11 µM (inactive).

Regarding `COc1ccc(C2C(C#N)=C(/N=C/N3CCN(C)CC3)OC3=C2C(=O)CC(C)(C)C3)cc1` (stereo not given), the EC50 was > 11 µM (inactive).

On to `COc1ccc(C2C(C(=O)c3cccs3)=C(O)C(=O)N2c2nncs2)cc1` (stereo not given), for which the EC50 is > 11 µM (inactive).

With `CN1CCc2cccc3c2C1Cc1ccc(O)c(O)c1-3` (stereo not given), the EC50 is > 11 µM (inactive).

Take `Oc1cc2c(cc1O)C(c1ccccc1)CNCC2` (stereo not given): the EC50 was > 11 µM (inactive).

Turning to `Cc1cccc2sc(NNC(=O)c3cc(=O)c4ccccc4o3)nc12`, the EC50 was > 11 µM (inactive).

As to `COC(=O)CNc1cccc(C(F)(F)F)c1`, the EC50 was > 11 µM (inactive).

For the compound `N#C/C(=C/c1cccn1-c1cccc(C(=O)O)c1)c1ccc(Cl)cc1`, the EC50 was > 11 µM (inactive).

On to `CN1Cc2c(c(C#N)c(N)n(C)c2=S)CC1(C)C`, for which the EC50 is > 11 µM (inactive).

On to `Cc1ccc(-c2ccc(CCC(=O)O)n2-c2ccc(C(=O)O)cc2)cc1`, for which the EC50 was > 11 µM (inactive).

On to `CCCSc1nnc(N2C(=O)C(O)=C(C(=O)c3ccco3)C2c2ccccc2F)s1` (stereo not given), for which the EC50 was > 11 µM (inactive).

Take `CCN(CC)c1ccc(/C=c2/sc3nnc(-c4ccccc4C)n3c2=O)cc1`: the EC50 is > 11 µM (inactive).

In the case of `COc1ccc(C2C(C#N)=C(N)OC3=C2C(=O)CC(C)C3)c(OC)c1OC` (stereo not given), the EC50 was > 11 µM (inactive).

For `CN(C)S(=O)(=O)c1cccc(NC(=S)N/N=C/c2ccc(O)c(O)c2O)c1`, the EC50 is > 11 µM (inactive).

With `CC(C)N1CCc2c(sc(NC(=O)c3ccc4ccccc4c3)c2C(N)=O)C1`, the EC50 is > 11 µM (inactive).

In the case of `Nc1cc(S(=O)(=O)O)cc([N+](=O)[O-])c1O`, the EC50 is > 11 µM (inactive).

Consider `COc1cc(C2C(C#N)=C(N)OC3=C2C(=O)CCC3)c([N+](=O)[O-])cc1OC` (stereo not given), for which the EC50 is > 11 µM (inactive).

As to `Cc1ccc(-n2[nH]c(C)c(/C=N/NC(=O)c3ccc(O)cc3O)c2=O)cc1`, the EC50 was > 11 µM (inactive).

As for `CCOc1ccc(N2C(=O)/C(=C/c3ccco3)C(=O)NC2=S)cc1`, the EC50 is > 11 µM (inactive).

Take `Cc1cccn2c(=O)c3cc(S(=O)(=O)c4ccccc4)c(=N)n(CC4CCCO4)c3nc12` (stereo not given): the EC50 was > 11 µM (inactive).

Regarding `CNC(=O)c1c(NC(=O)c2ccc(S(=O)(=O)N3CCCCC3C)cc2)sc2c1CCN(C)C2` (stereo not given), the EC50 was > 11 µM (inactive).

For `COc1cccc(C2(O)CCN(CC(=O)Nc3nc(C)cs3)CC2)c1`, the EC50 was > 11 µM (inactive).

In the case of `Cc1cc(C(=O)O)ccc1-n1c(C)cc(/C=C(/C#N)C(=O)Nc2ccccc2)c1C`, the EC50 was > 11 µM (inactive).

For the compound `COc1ccc(C(=O)Nc2nc(-c3ccc([N+](=O)[O-])cc3)c(-c3ccccc3)s2)cc1`, the EC50 is > 11 µM (inactive).

Consider `CSCC(C)N1CCC(Oc2cccc(C(=O)NCc3ccccn3)c2)CC1` (stereo not given), for which the EC50 was > 11 µM (inactive).

By EC50 is commonly meant the concentration giving half of the maximal effect.
